Experimental data from patent EP1628135A1, “Method for detecting medically relevant conditions in a solubilized LBC sample” (MTM Laboratories AG, priority 2004, dated 2006).
Read-outs that look alike come from different tables or passages of the source. Where a SMILES comes first, the peptide text is derived from it. [ ]: non-standard residue; d: D form. The star is where a group is joined. Sta = CC(C)C[C@H](N)[C@@H](O)CC(=O)O; Isovaleryl = CC(C)CC(=O)*

Key:
p16^INK4a = assay: Stabilization of p16INK4a by proteinase inhibitors in mtm lysis medium
[1] = Stability of proteinase inhibitors in water
[2] = Solubility of proteinase inhibitors in water
[3] = inhibitor at the concentration listed in Table 2

SMILES | p16^INK4a stabilization in mtm Lysis medium (p16^INK4a; [3]) | stability in water [1] | Solubility in water [2] | p16^INK4a stabilization in mtm Lysis medium (p16^INK4a)
N=C(N)c1ccccc1 [Benzamidine] | no | good | good | –
CC(C)C[C@H](NC(=O)[C@@H](O)[C@H](N)Cc1ccccc1)C(=O)O [Bestatin] | no | good | good | –
O=C(O)CN(CCN(CC(=O)O)CC(=O)O)CC(=O)O [EDTA] | – | – | – | no
CC(=O)N[C@@H](CC(C)C)C(=O)N[C@@H](CC(C)C)C(=O)N[C@H](C=O)CCCNC(=N)N [Leupeptin] | no | good | good | –
O=S(=O)(F)Cc1ccccc1 [PMSF] | yes | – | – | –
NCCc1ccc(S(=O)(=O)F)cc1 [Pefabloc= AEBSF, AEBSF] | yes | – | – | –
CC(C)CC(=O)N[C@H](C(=O)N[C@H](C(=O)N[C@@H](CC(C)C)[C@@H](O)CC(=O)N[C@@H](C)C(=O)N[C@@H](CC(C)C)[C@@H](O)CC(=O)O)C(C)C)C(C)C [Pepstatin A] (Isovaleryl-VV[Sta]A[Sta]-OH) | no | – | – | –

Further lines, with some results ahead:

p16^INK4a stabilization in mtm Lysis medium (p16^INK4a; [3]) | stability in water [1] | Solubility in water [2] | SMILES | p16^INK4a stabilization in mtm Lysis medium (p16^INK4a)
no | good | good | CCCC[C@@H](C=O)NC(=O)[C@H](CC(C)C)NC(=O)OCc1ccccc1 [Calpeptin] | –
no | good | good | CC(C)C[C@H](NC(=O)[C@H]1O[C@@H]1C(=O)O)C(=O)NCCCCN=C(N)N [E-64] | –
no | poor | bad | CCOC(=O)[C@H]1O[C@@H]1C(=O)N[C@@H](CC(C)C)C(=O)NCCC(C)C [EST] | –
no | good | poor | CC(C)C[C@H](NC(=O)N[C@H](C(=O)N[C@@H](CCC(N)=O)C(=O)N[C@@H](C)C=O)[C@@H]1CCNC(=N)N1)C(=O)O [Elastatinal] | –
no | poor | poor | CCOC(=O)[C@@H]1O[C@H]1C(=O)NC(CC(C)C)C(=O)N1CCN(Cc2ccc(OC)c(OC)c2OC)CC1.CCOC(=O)[C@@H]1O[C@H]1C(=O)NC(CC(C)C)C(=O)N1CCN(Cc2ccc(OC)c(OC)c2OC)CC1.O=S(=O)(O)O (stereo partly shown) [NCO-700] | –
no | poor | bad | c1cnc2c(c1)ccc1cccnc12 [o-Phenanthroline] | –
